Experimental data taken from patent US9604931B2, “Nuclear receptor binding agents” (GTx, Inc., priority 2007, dated 2017).

Experiments:
ER-β = ER-β (Rattus norvegicus (Rat), UniProt Q62986); experiment: ER-β transactivation (ERE-LUC) in COS or 293 cells; format: cell-based
[1] = system: Rat Aortic Smooth Muscle Cells (RASMC); experiment: RASMC cell proliferation assay (WST-1); format: cell-based; details: Rattus norvegicus, read-out: EC50 for inhibition of RASMC proliferation
Protocol: EC50 values were calculated using WinNonLin 5.0.1 using the inhibitory effect sigmoid Emax model.

ARPE-19 cells = experiment: Fluorescent detection of intracellular ROS; format: cell-based, Human; details: 150 μM tBH
Text: Cells were allowed to adhere overnight. […] Removed and washed cells once with HBSS. […] Each drug concentration was done in triplicates.

[2] = system: Ang II induced hypertension; experiment: Angiotensin II model, blood pressure; format: in vivo, ovariectomized C57/BJ6 and ERβKO mice; design: Systolic pressure / Diastolic pressure: unit: mmHg; details: for Diastolic pressure / Systolic pressure: Ang II
Protocol: (§1) Thirty, ten week old female ovariectomized C57/BJ6 mice, were obtained from Harlan/Sprague Dawley and were housed in 12 hour on/off lighting and fed rodent chow devoid of soy or most plant products. Ovariectomized ERβ gene-deleted (ERβKO or ERβ-KO) mice were obtained from Ken Korach, NIEHS. The ERβ mice were originally created by Drs. Smithies, Gustafsson, and colleagues. All mice were identically housed and fed the same chow.
(§2) This pellet is well documented to produce physiological levels of E2 in the serum of mice.
Blood pressure was measured 4 times during the 21-day period, using the CODA non-invasive blood pressure measuring system (Kent Scientific, Torrington, Conn.). Measurements were done by volume pressure recordings of the tail.

[3] = system: Ang II induced left ventricular hypertrophy; experiment: Angiotensin II model, cardiac hypertrophy; format: in vivo, ovariectomized C57/BJ6 and ERβKO mice; details: 21 days
Protocol: as §1, with “ERβKO” for “ERβ gene-deleted (ERβKO or ERβ-KO)”
as §2
At inception and after 21 days, the mice were weighed. Blood pressure was measured 4 times during the 21-day period, using the CODA non-invasive blood pressure measuring system. At 21 days the hearts were stopped in diastole by CdCl2 administration. The hearts were removed and weighed and the ratio of heart per total body weight was determined. Next, the hearts were dissected and the left ventricles were weighed and the ratio of left ventricle per total body weight was determined. […] For comparison ERβ gene-deleted mice were subjected to the same conditions of Ang II±E2 or the 12u compound. For histology, the hearts were and sectioned, and stained with hematoxylin and eosin, or Masson stain (for collagen)

[4] = system: Ang II induced cardiac fibrosis; experiment: Angiotensin II model, cardiac fibrosis; format: in vivo, ovariectomized C57/BJ6 and ERβKO mice
Protocol: as §1, with “ERβKO” for “ERβ gene-deleted (ERβKO or ERβ-KO)”
as §2
Left ventricular tissues were fixed in 4% paraformaldehyde solution. Paraffin-embedded tissue sections (5 um) were stained with Masson's trichrome for the presence of interstitial collagen fiber accumulation indicative of cardiac fibrosis. The ratio of interstitial fibrosis to the total left ventricular area was calculated from 10 randomly selected microscopic fields from each of five sections per heart using NIH imageJ analysis software (n=5 mice per condition). Further quantification of collagen deposition was made by ventricular content of hydroxyproline, a breakdown product of collagen, determined by a modified method of Bergman and Loxley (19). The ventricular tissues were homogenized and hydrolyzed in 6 N HCl at 110° C. for 24 h in a sealed reaction vial. The sample was dried and the residue re-suspended in sterile water. 0.5 ml of chloramine T was added for 5 min, then Ehrlich's reagent (3 ml) was added and the mixture left for 18 h at room temperature. The intensity of the red coloration that developed was measured by a spectrophotometer at 558 nm.

[5] = biological target: ERα ligand binding domain (Homo sapiens, UniProt P03372); experiment: Competitive [3H]-estradiol binding assay, ER-α (Example 21); details: 100 nM of compound; read-out: Percent Inhibition of [3H]-Estradiol Binding to ER-α
Protocol: (§3) ER binding affinity was determined via one of the following methods:
(§4) Briefly, the incubation mixture was filtered through a high affinity protein binding filter, and washed several times to remove any unbound radioactivity. The filter plate was air dried and sealed on the bottom.
(§5) Nonspecific binding was subtracted from total binding to yield specific binding.

[6] = biological target: ERβ ligand binding domain (Homo sapiens, UniProt Q92731); experiment: Competitive [3H]-estradiol binding assay, ER-β (Example 21)
Protocol: as §3, §4, §5

ER-α = ER-α (Rattus norvegicus (Rat), UniProt P06211); format: cell-based
Protocol: COS or 293 cells were plated in DME without phenol red+10% cs FBS at 90,000 cells per well in 24 well plates, and were transfected with 0.25 μg of the vector “ERE-LUC”, where a firefly luciferase gene was driven by two estrogen responsive elements and 0.02 μg of the control CMV-LUC, Renilla where a luciferase gene was driven by a CMV promoter. […] All the receptors were cloned from rat tissue into the PCR3.1 vector backbone. Twenty four hours post transfection, cells were treated with compounds of this invention, estrogen, DHT, and other NRBAs or combinations thereof. Cells were harvested 48 hrs after transfection, and assayed for firefly and Renilla luciferase activity.

[7] = system: LPS induced THP-1 macrophage cell adhesion to bEND-3 endothelial cells; experiment: Macrophage adhesion assay; format: cell-based
Protocol: To determine the anti-inflammatory effects of ER-β NRBAs in vitro, a macrophage adhesion assay was performed. Macrophages adhere to endothelial cells due to elevated levels of pro-inflammatory cytokines. This principle was used in this assay to determine the effect of one of the ER-NRBAs on bacterial lipopolysaccharide (LPS) induced THP-1 macrophage cell adhesion to bEND-3 endothelial cells.

rat aorta rings = experiment: Rat aortic ring relaxation; details: 10^-6 PE constriction
Text: Experimental protocol. Equipment used in these studies included a 4-tissue bath system with reservoirs and circulators (RadnotiGlass Technology, Monrovia, Calif.), DSI/Ponemah tissue force analyzer 7700 (Valley View, Ohio), and iWorx/CB Sciencesforce transducers FT-302. The 250 g rats were anesthetized with isoflurane to produce deep anesthesia. The chest of the rat was opened, and about 3 cm length of aorta was removed and placed in a Petri dish containing room temperature Krebs salt solution (KSS, in mM: 120 NaCl, 5 KCl, 1.2 MgSO4.7H20, 2.5 CaCl2.2H2O, 1 KH2PO4, 25 NaHCO3, and 11 glucose). Fat and connective tissue were removed from the aorta taking care not to stretch the vessel. The aorta was then divided into 3-mm-wide rings. Triangular wire holders were inserted through the lumen of the vessel and connected to the force transducer and tissue holder rod in the vessel bath.
Analog-to-digital conversions of force waveforms were accomplished with a DSI/Ponemah tissue force analyzer 7700. The converted data were automatically analyzed with Ponemah Physiology-Smooth Muscle software. All data are summarized as means±standard error. Differences between means were assessed by a conventional ANOVA. This was followed by Student's test. P<0.05 was considered to be statistically significant.
The tension on the rings was adjusted to 1.0 g passive force using the tension adjustment dial for each transducer and allowed to equilibrate for 60 min in the bath with a 95% O2-5% CO2 gas mixture. The rings were washed with fresh buffer every 20 min. Passive force was readjusted to 1.0 g as needed during this period. When rings were stable at 1.0 g of passive force, the baseline was calculated.
Phenylephrine (PE) at a final concentration of […] was added to the bath to contract the ring, and force was allowed to stabilize for 10 min. Then acetylcholine (ACH) at a final concentration of 10^−5 M was added to the precontracted rings to test for endothelial integrity […]. After the initial test for vessel viability and endothelial integrity, the rings were washed three times for 10 min with buffer, allowing it to equilibrate to active force stabilized at 1 g.
Cumulative concentration-response curves to NRBAs were created by increasing the NRBAs concentration in the tissue bath by successive addition of appropriate dilutions of stock solutions to achieve final bath concentrations of 300 nM to 0.15 mM NRBAs.
Table 10 summarizes EC50 values and maximal % decrease of the 10^−6 PE constriction of the aortic ring for individual NRBAs tested

SHP promoter = experiment: SHP promoter-luciferase assay in HEK-293 cells; format: cell-based
Protocol: FIG. 12 depicts the effect of ER-β ligand on PPAR-γ function through ligand binding domain (LBD). (A). HEK-293 cells were transfected with 0.25 μg PPRE-LUC, 5 ng CMV-renilla LUC and the indicated receptors (PPAR-γ and ER-β for the left panel and PPAR-α and ER-β for the right panel). The cells were treated 24 hrs after transfection with the indicated ligands and harvested 48 hrs after transfection and firefly luciferase activity was measured and normalized to renilla luciferase. (B). H475 in ER-β LBD is important for its function. H475 in ER-β LBD was mutated to alanine (A) using a site directed mutagenesis kit. Transactivation assay was performed as described in panel A in HEK-293 cells with a titration of ER-β ligands in wild type (WT) or ER-β H475A. (C). […] HEK-293 cells were transfected with 0.25 μg PPRE-LUC, 5 ng CMV-renilla LUC and 50 ng of the indicated receptors (PPAR-γ or PPAR-γ and wild type ER-β or PPAR-γ and ER-β H475A). The cells were treated 24 hrs after transfection with the indicated ligands and harvested 48 hrs after transfection and firefly luciferase activity was measured and normalized to renilla luciferase. (D). […] HepG2 cells were transfected with 0.25 μg PPRE-LUC, 5 ng CMV-renilla LUC, 0.5 μg PGC-1 or vector backbone and 100 ng of the indicated receptors (PPAR-γ or PPAR-γ and wild type ER-β or PPAR-γ and ER-β H475A for top panels and PPAR-α or PPAR-α and ER-β for bottom panel). The cells were treated 24 hrs after transfection with the indicated ligands and harvested 48 hrs after transfection and firefly luciferase activity was measured and normalized to renilla luciferase. (E). SHP-1 is an ER-β specific target gene. HEK-293 cells were transfected with 0.25 μg SHP-LUC, 5 ng CMV-renilla LUC and 50 ng of the indicated receptors (FXR and ER-α for the left panel and FXR and ER-β for the right panel). The cells were treated 24 hrs after transfection with the indicated ligands and harvested 48 hrs after transfection and firefly luciferase activity was measured and normalized to renilla luciferase. PPAR—peroxisome proliferator and activated receptor; ER—estrogen receptor; H—histidine; A—alanine; RLU—relative luciferase units; Tro—troglitazone; PGC-1—PPAR-γ coactivator; SHP—small heterodimer partner; FXR—farsenoid X receptor.
Human estrogen receptors (ER-α and ER-β) were cloned from prostate cDNA into a pCR3.1 plasmid vector backbone. PGC-1 was cloned into mammalian two hybrid vector pACT. ER-β H475 was mutated to alanine using site-directed mutagenesis. Sequencing was performed to determine the absence of any non specific mutations. SHP promoter (−572 to +10) (26) was cloned into pGL3 basic LUC reporter vector and human FXR was cloned into pCR3.1. […]

Sequence of ER-β (Q62986 whole entry): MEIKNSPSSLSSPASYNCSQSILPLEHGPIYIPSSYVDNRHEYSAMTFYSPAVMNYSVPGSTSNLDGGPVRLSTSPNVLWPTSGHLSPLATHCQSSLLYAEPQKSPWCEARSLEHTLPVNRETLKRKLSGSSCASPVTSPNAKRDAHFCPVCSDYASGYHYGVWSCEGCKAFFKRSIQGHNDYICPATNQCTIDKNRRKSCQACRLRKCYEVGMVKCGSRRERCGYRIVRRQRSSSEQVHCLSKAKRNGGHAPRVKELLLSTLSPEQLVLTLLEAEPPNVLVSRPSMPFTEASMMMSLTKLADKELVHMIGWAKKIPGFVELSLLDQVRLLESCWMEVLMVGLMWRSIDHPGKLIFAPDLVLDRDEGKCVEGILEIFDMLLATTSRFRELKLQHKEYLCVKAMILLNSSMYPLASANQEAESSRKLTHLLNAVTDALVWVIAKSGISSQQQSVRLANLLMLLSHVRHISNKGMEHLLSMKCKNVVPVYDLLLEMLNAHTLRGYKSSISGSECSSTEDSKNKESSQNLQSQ
Sequence of ERβ ligand binding domain (Q92731 whole entry, looked up, the tested form may be a part): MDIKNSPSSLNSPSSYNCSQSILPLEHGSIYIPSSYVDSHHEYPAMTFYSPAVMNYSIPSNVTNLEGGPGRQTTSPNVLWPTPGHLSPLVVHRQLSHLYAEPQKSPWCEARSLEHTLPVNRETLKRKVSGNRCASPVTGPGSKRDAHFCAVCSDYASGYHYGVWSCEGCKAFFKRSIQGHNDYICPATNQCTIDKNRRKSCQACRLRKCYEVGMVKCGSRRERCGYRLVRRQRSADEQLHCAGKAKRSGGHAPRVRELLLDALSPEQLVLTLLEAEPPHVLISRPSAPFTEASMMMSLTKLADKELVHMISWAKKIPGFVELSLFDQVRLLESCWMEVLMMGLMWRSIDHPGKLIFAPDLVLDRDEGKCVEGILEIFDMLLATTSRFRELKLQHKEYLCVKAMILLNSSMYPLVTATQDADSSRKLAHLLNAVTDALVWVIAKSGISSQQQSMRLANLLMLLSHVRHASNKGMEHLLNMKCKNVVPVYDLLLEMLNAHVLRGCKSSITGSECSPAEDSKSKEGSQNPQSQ
Sequence of ERα ligand binding domain (P03372 whole entry, looked up, the tested form may be a part): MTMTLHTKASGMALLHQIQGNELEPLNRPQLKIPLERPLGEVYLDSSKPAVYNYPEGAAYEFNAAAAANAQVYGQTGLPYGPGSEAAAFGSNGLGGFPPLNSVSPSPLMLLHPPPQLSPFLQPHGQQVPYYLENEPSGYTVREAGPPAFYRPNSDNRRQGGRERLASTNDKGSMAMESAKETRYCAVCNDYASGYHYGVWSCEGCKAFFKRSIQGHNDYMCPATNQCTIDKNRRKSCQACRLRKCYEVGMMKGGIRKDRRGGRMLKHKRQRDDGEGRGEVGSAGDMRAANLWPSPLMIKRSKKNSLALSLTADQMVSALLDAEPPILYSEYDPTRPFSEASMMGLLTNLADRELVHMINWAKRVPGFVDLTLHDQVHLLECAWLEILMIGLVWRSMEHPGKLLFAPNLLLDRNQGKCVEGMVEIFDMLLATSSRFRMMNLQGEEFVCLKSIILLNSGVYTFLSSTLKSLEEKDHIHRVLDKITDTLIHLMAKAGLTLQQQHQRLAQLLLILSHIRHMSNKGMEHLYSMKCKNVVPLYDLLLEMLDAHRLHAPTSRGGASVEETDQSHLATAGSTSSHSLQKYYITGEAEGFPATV

C[C@]12CC[C@@H]3c4ccc(O)cc4CC[C@H]3[C@@H]1CC[C@@H]2O [Estradiol, reference compound]
ER-β RLU/RenRLU (ER-β; dose 1 nM): 0.48 RLU/RenRLU
EC50 [1]: 36.4 µM
Reduction in ROS formation (ARPE-19 cells; 100 nM): approximately 30%
Ang II induced hypertension, diastolic pressure ([2]; ERβ-KO mice, 21 days): unchanged
Ang II induced hypertension, systolic pressure ([2]; ERβ-KO mice, 21 days): mildly reduced
Diastolic pressure ([2]; ERβKO, 7 days): 95
Systolic pressure ([2]; ERβKO, 7 days): 149
Diastolic pressure ([2]; ERβKO, 14 days): 98
Systolic pressure ([2]; ERβKO, 14 days): 143
Diastolic pressure ([2]; ERβKO, 21 days): 96
Systolic pressure ([2]; ERβKO, 21 days): 145
Diastolic pressure ([2]; ERβKO, time 0): 86
Systolic pressure ([2]; ERβKO, time 0): 126
Diastolic pressure ([2]; WT, 7 days): 82
Systolic pressure ([2]; WT, 7 days): 121
Diastolic pressure ([2]; WT, 14 days): 86
Systolic pressure ([2]; WT, 14 days): 124
Diastolic pressure ([2]; WT, 21 days): 88
Systolic pressure ([2]; WT, 21 days): 131
Diastolic pressure ([2]; WT, time 0): 85
Systolic pressure ([2]; WT, time 0): 123
Ang II induced hypertension ([2]; wildtype mice, 21 days): largely prevented
Ang II induced increase in heart size and total heart weight [3]: prevented the increased size
Ang II induced left ventricular hypertrophy (LVW/BW) ([3]; wildtype but not ERβKO mice): largely prevented
Ventricular hydroxyproline content ([4]; WT mice, not ERβKO): significantly inhibited the hydroxyproline content
Ang II induced cardiac fibrosis (interstitial collagen) ([4]; only in WT mice): significantly inhibited fibrosis

O=c1c2c(O)cc(O)cc2c(Cl)cn1-c1ccc(O)cc1 [12y, 4-chloro-6,8-dihydroxy-2-(4-hydroxyphenyl)isoquinolin-1(2H)-one]
inhibition at 0.1 µM [5]: 51.9%
Ki Ratio (ER-α/ER-β) [6]: 11
inhibition at 0.1 µM ([6]; read-out: Percent Inhibition of [3H]-Estradiol Binding to ER-β): 97.5%
Classification as ER-α agonist (ER-α): ER-α agonists
ER-β agonist activity (ER-β): ER-β agonist activity
Adhesion of 3H labeled THP-1 cells to bEND-3 cells [7]: significantly inhibited
Mean of Maximal % Decrease of the PE constriction of the aortic ring (rat aorta rings): 80.63%
EC50 (rat aorta rings; Rattus norvegicus): 13.2 µM
Inhibition of ROS formation (ARPE-19 cells): more than 50%
Prevention of ROS formation / oxidative stress (ARPE-19 cells): protected ARPE-19 cells from oxidative damage

CCCc1c(-c2ccc(O)cc2)nn(-c2ccc(O)cc2)c1-c1ccc(O)cc1 [PPT, 1,3,5-tris(4-hydroxyphenyl)-4-propyl-1H-pyrazole, reference compound]
SHP promoter activity (SHP promoter; transfected with FXR and ER-α): increased SHP activity

CC(C)c1onc(-c2c(Cl)cccc2Cl)c1COc1ccc(/C=C/c2cccc(C(=O)O)c2)c(Cl)c1 [GW4064, reference compound]
SHP promoter activity (SHP promoter; transfected with FXR and ER-β): increased its activity significantly
